# Reference: PMC8531348, “Design, synthesis, biological evaluation, and molecular modeling studies of pyrazole-benzofuran hybrids as new α-glucosidase inhibitor” (Scientific Reports, 2021)
# “And” between values parts separate entries of the source, which are not always exact repeats. Equal values may be shown once. Read-outs that look alike come from different tables or passages of the source.
# Key:
# [1] = target: T1, α-glucosidase enzyme (from Saccharomyces cerevisiae, EC3.2.1.20) (Saccharomyces cerevisiae, UniProt P53341); test: biochemical; type: biochemical; conditions: for fold more potent than the standard acarbose: ratio of IC50 versus acarbose
# T1 construct: purchased Sigma Chemical Co. (St. Louis, USA)
# Method: The α-glucosidase enzyme (from Saccharomyces cerevisiae, EC3.2.1.20) was used to evaluate the α-glucosidase inhibitory activity. […] Therefore, α-glucosidase from yeast is extensively used for the preliminary screening of α-glucosidase inhibitors[47],[48]. […] Stock solutions of the test compounds and acarbose were prepared in DMSO and eventually diluted with phosphate buffer saline to attain the desired concentration. […] The percentage of enzyme inhibition for each entry was calculated using the following formula:
# % Inhibition = [(Abs control—Abs sample)/Abs control] × 100.
# [2] = target: T2, α-glucosidase (Saccharomyces cerevisiae, UniProt P53341); test: Kinetic study of α-glucosidase inhibition (Lineweaver–Burk plots); type: biochemical
# T2 construct: purchased Sigma Chemical Co. (St. Louis, USA)
# Method: In different concentrations of test compound (0, 10, 25, and 40 µM) and with the incremental concentration (2–10 mM) of substrate, the rate of the enzyme activity was calculated. The type of inhibition and experimental inhibition constant (Ki) value were determined by employing Lineweaver–Burk plots and secondary re-plot of these plots, respectively. […] This pattern indicates a competitive type of inhibition.
# The kinetics of enzyme inhibition was performed according to the reaction conditions in 2.5 by preparing a series of test solutions in which the concentration of the substrate (PNPG) was varied (2–10 mM) in the absence and presence of compound 8e at different concentrations (0, 10, 25, and 40 µM). A Lineweaver–Burk plot was generated to identify the type of inhibition and the Michaelis–Menten constant (Km) value was determined from the plot between reciprocal of the substrate concentration (1/[S]) and reciprocal of enzyme rate (1/V) over various inhibitor concentrations. The experimental inhibitor constant (Ki) value was constructed by secondary plots of the inhibitor concentration [I] versus Km.
# [3] = system: 3T3 cell line; test: Cytotoxicity against normal 3T3 cell line by MTT assay; type: cell-based; conditions: at 150 µM concentration, 3T3, MTT
# Method: (§1) The results of cytotoxic activity were expressed as the IC50 (µM) and outlined in Table 2.
# (§2) The cytotoxicity of the compounds 8e, 8l, 8f and 8n was determined using the 3-(4,5 Dimethylthiazol-2-yl)-2,5-diphenyltetrazolium bromide (MTT) assay according to previously described methods.
# [4] = as above; type: cell-based; conditions: mouse, 3T3 cells (normal cell line); MTT assay, normal 3T3 cell line
# Method: as §1, §2
# T1 sequence (P53341 whole entry): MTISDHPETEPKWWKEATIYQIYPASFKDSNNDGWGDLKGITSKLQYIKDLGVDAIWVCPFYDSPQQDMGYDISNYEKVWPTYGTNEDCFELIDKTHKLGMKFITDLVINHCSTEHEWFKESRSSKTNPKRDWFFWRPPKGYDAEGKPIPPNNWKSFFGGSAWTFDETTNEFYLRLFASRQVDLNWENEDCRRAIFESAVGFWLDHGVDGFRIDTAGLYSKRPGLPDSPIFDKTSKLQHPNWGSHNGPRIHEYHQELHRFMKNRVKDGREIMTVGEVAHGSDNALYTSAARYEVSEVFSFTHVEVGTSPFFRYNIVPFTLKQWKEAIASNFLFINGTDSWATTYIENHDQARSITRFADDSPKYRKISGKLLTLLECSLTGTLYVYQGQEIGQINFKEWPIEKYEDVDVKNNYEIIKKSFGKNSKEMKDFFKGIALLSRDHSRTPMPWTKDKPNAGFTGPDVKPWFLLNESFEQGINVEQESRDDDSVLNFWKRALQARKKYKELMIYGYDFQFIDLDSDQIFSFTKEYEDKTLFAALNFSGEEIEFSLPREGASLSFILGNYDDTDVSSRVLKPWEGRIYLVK
# T2 sequence (P53341 whole entry): as above
SMILES,melting point,IC50 [1],further results
"O=C(NN=Cc1cn(-c2ccccc2)nc1-c1ccccc1)c1cc2ccccc2o1 [8a, N'-((1,3-Diphenyl-1H-pyrazol-4-yl)methylene)benzofuran-2-carbohydrazide]",210 to 211 °C,141.2 ± 1.4 µM,–
"Cc1ccc(-c2nn(-c3ccccc3)cc2C=NNC(=O)c2cc3ccccc3o2)cc1 [8b, N'-((1-Phenyl-3-p-tolyl-1H-pyrazol-4-yl)methylene)benzofuran-2-carbohydrazide]",234 to 235 °C,108.3 ± 0.8 µM,–
"COc1ccc(-c2nn(-c3ccccc3)cc2C=NNC(=O)c2cc3ccccc3o2)cc1 [8c, N'-((3-(4-Methoxyphenyl)-1-phenyl-1H-pyrazol-4-yl)methylene)benzofuran-2-carbohydrazide]",207 to 209 °C,100.3 ± 0.7 µM,–
"O=C(N/N=C/c1cn(-c2ccccc2)nc1-c1ccc(O)cc1)c1cc2ccccc2o1 [8d, (E)-N'-((3-(4-hydroxyphenyl)-1-phenyl-1H-pyrazol-4-yl)methylene)benzofuran-2-carbohydrazide]",280 to 281 °C,133.6 ± 1.2 µM,–
"O=C(NN=Cc1cn(-c2ccccc2)nc1-c1ccc([N+](=O)[O-])cc1)c1cc2ccccc2o1 [8e, N'-((3-(4-Nitrophenyl)-1-phenyl-1H-pyrazol-4-yl)methylene)benzofuran-2-carbohydrazide]",–,–,"type of inhibition ([2]; Lineweaver–Burk plot): competitive; Ki ([2]; secondary re-plot of Lineweaver–Burk plots, 0, 10, 25, 40 µM inhibitor, substrate 2–10 mM, read-out: inhibition constant Ki): ~38 µM and 38 µM; cytotoxicity against normal cell line [3]: noncytotoxic; IC50 [4]: > 150 µM; IC50 ([1]; mean ± SD, at least three experiments, substrate p-nitrophenyl-α-glucopyranoside, read-out: IC50 α-glucosidase inhibitory activity): 40.6 ± 0.2 µM; fold more potent than the standard acarbose [1]: approximately 18 fold"
"O=C(NN=Cc1cn(-c2ccccc2)nc1-c1ccc(Br)cc1)c1cc2ccccc2o1 [8f, N'-((3-(4-Bromophenyl)-1-phenyl-1H-pyrazol-4-yl)methylene)benzofuran-2-carbohydrazide]",243 to 245 °C,79.7 ± 0.5 µM,cytotoxicity against normal cell line [3]: noncytotoxic; IC50 [4]: > 150 µM; fold more potent than the standard acarbose [1]: nine-fold
"O=C(NN=Cc1cn(-c2ccccc2)nc1-c1ccc(Cl)cc1)c1cc2ccccc2o1 [8g, N'-((3-(4-Chlorophenyl)-1-phenyl-1H-pyrazol-4-yl)methylene)benzofuran-2-carbohydrazide]",241 to 243 °C,125.3 ± 1 µM,–
"O=C(NN=Cc1cn(-c2ccccc2)nc1-c1ccc(F)cc1)c1cc2ccccc2o1 [8h, N'-((3-(4-Fluorophenyl)-1-phenyl-1H-pyrazol-4-yl)methylene)benzofuran-2-carbohydrazide]",253 to 254 °C,164 ± 1.8 µM,–
"O=C(NN=Cc1cn(-c2ccccc2)nc1-c1ccc(C(F)(F)F)cc1)c1cc2ccccc2o1 [8i, N'-((1-Phenyl-3-(4-(trifluoromethyl)phenyl)-1H-pyrazol-4-yl)methylene)benzofuran-2-carbohydrazide]",217 to 218 °C,101.7 ± 0.7 µM,–
"Cc1ccc(-n2cc(C=NNC(=O)c3cc4ccccc4o3)c(-c3ccccc3)n2)cc1 [8j, N'-((3-Phenyl-1-p-tolyl-1H-pyrazol-4-yl)methylene)benzofuran-2-carbohydrazide]",255 to 256 °C,157 ± 1.6 µM,–
"Cc1ccc(-c2nn(-c3ccc(C)cc3)cc2C=NNC(=O)c2cc3ccccc3o2)cc1 [8k, N'-((1,3-Dip-tolyl-1H-pyrazol-4-yl)methylene)benzofuran-2-carbohydrazide]",259 to 261 °C,115.6 ± 0.9 µM,–
"COc1ccc(-c2nn(-c3ccc(C)cc3)cc2C=NNC(=O)c2cc3ccccc3o2)cc1 [8l, N'-((3-(4-Methoxyphenyl)-1-p-tolyl-1H-pyrazol-4-yl)methylene)benzofuran-2-carbohydrazide]",230 to 232 °C,54.7 ± 0.3 µM,cytotoxicity against normal cell line [3]: noncytotoxic; IC50 [4]: > 150 µM; increase in activity compared with compound 8c ([1]; effect of methyl group on R2): two-fold; fold more potent than the standard acarbose [1]: > 13 fold
"Cc1ccc(-n2cc(C=NNC(=O)c3cc4ccccc4o3)c(-c3ccc(O)cc3)n2)cc1 [8m, N'-((3-(4-Hydroxyphenyl)-1-p-tolyl-1H-pyrazol-4-yl)methylene)benzofuran-2-carbohydrazide]",293 to 295 °C,127 ± 1 µM,–
"Cc1ccc(-n2cc(C=NNC(=O)c3cc4ccccc4o3)c(-c3ccc(Br)cc3)n2)cc1 [8n, N'-((3-(4-Bromophenyl)-1-p-tolyl-1H-pyrazol-4-yl)methylene)benzofuran-2-carbohydrazide]",258 to 259 °C,95.6 ± 0.6 µM,cytotoxicity against normal cell line [3]: noncytotoxic; IC50 [4]: > 150 µM; fold more potent than the standard acarbose [1]: approximately eight-fold
"Cc1ccc(-n2cc(C=NNC(=O)c3cc4ccccc4o3)c(-c3ccc(Cl)cc3)n2)cc1 [8o, N'-((3-(4-Chlorophenyl)-1-p-tolyl-1H-pyrazol-4-yl)methylene)benzofuran-2-carbohydrazide]",248 to 249 °C,155 ± 1.6 µM,–
